The supplement of paper PMC10307832

How the values were obtained:
Assay in all cases: relative viability (nuclei count vs DMSO), 5 days (fraction); higher = more cells survive
[1] = system: EPLC-272H
Method in brief: (§1)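 One day after seeding in 1536-well plates, lung cancer cell lines were dosed by pin tool. Dosing was either single-drug or a fixed anchor-drug dose plus five library-drug doses (not always all listed) in √10 steps. After 5 days, nuclei were stained in one fix-and-stain step and counted on 4× images, and relative viability is the nuclei count of treated wells over that of vehicle wells, given as the median of duplicate plates.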

[2] = system: NCI-H2170
Method in brief: as §1

[3] = system: NCI-H2023
Method in brief: as §1

[4] = system: NCI-H1793
Method in brief: as §1

[5] = system: UMC-11
Method in brief: as §1

[6] = system: NCI-H441
Method in brief: as §1

[7] = system: COR-L23
Method in brief: as §1

[8] = system: NCI-H2347
Method in brief: as §1

[9] = system: NCI-H647
Method in brief: as §1

[10] = system: NCI-H322M
Method in brief: as §1

[11] = system: HCC-15
Method in brief: as §1

[12] = system: 201T
Method in brief: as §1

[13] = system: NCI-H520
Method in brief: as §1

[14] = system: H3255
Method in brief: as §1

[15] = system: NCI-H1734
Method in brief: as §1

[16] = system: NCI-H3122
Method in brief: as §1

[17] = system: NCI-H2405
Method in brief: as §1

[18] = system: NCI-H1650
Method in brief: as §1

[19] = system: PC-14
Method in brief: as §1

[20] = system: NCI-H1563
Method in brief: as §1

[21] = system: LOU-NH91
Method in brief: as §1

Compound: CCN(CC)CCCCNc1ncc2cc(-c3cc(OC)cc(OC)c3)c(NC(=O)NC(C)(C)C)nc2n1 + CS(=O)(=O)N1CCN(Cc2cc3nc(-c4cccc5[nH]ncc45)nc(N4CCOCC4)c3s2)CC1 [Pictilisib] (partner 1 µM)
- relative viability ([1]; first compound 0.01 µM): 0.288
- relative viability ([1]; first compound 0.1 µM): 0.33
- relative viability ([1]; first compound 0.3162 µM): 0.298
- relative viability ([1]; first compound 1 µM): 0.184
- relative viability ([2]; first compound 0.01 µM): 0.326
- relative viability ([2]; first compound 0.03162 µM): 0.27
- relative viability ([2]; first compound 0.1 µM): 0.299
- relative viability ([2]; first compound 0.3162 µM): 0.317
- relative viability ([2]; first compound 1 µM): 0.322
- relative viability ([3]; first compound 0.01 µM): 0.22
- relative viability ([3]; first compound 0.03162 µM): 0.222
- relative viability ([3]; first compound 0.1 µM): 0.221
- relative viability ([3]; first compound 0.3162 µM): 0.232
- relative viability ([3]; first compound 1 µM): 0.193
- relative viability ([4]; first compound 0.01 µM): 0.286
- relative viability ([4]; first compound 0.1 µM): 0.322
- relative viability ([4]; first compound 0.3162 µM): 0.233
- relative viability ([4]; first compound 1 µM): 0.224
- relative viability ([5]; first compound 0.01 µM): 0.85
- relative viability ([5]; first compound 0.03162 µM): 0.806
- relative viability ([5]; first compound 0.1 µM): 0.987
- relative viability ([5]; first compound 0.3162 µM): 0.989
- relative viability ([5]; first compound 1 µM): 0.752
- relative viability ([6]; first compound 0.01 µM): 0.48
- relative viability ([6]; first compound 0.03162 µM): 0.554
- relative viability ([6]; first compound 0.1 µM): 0.412
- relative viability ([6]; first compound 0.3162 µM): 0.53
- relative viability ([6]; first compound 1 µM): 0.407
- relative viability ([7]; first compound 0.01 µM): 0.781
- relative viability ([7]; first compound 0.03162 µM): 0.955
- relative viability ([7]; first compound 0.1 µM): 0.824
- relative viability ([7]; first compound 0.3162 µM): 0.809
- relative viability ([7]; first compound 1 µM): 0.8
- relative viability ([8]; first compound 0.01 µM): 0.772
- relative viability ([8]; first compound 0.03162 µM): 0.656
- relative viability ([8]; first compound 0.1 µM): 0.611
- relative viability ([8]; first compound 0.3162 µM): 0.89
- relative viability ([8]; first compound 1 µM): 0.655
- relative viability ([9]; first compound 0.03162 µM): 0.471
- relative viability ([9]; first compound 0.1 µM): 0.486
- relative viability ([9]; first compound 0.3162 µM): 0.465
- relative viability ([9]; first compound 1 µM): 0.348
- relative viability ([10]; first compound 0.01 µM): 0.573
- relative viability ([10]; first compound 0.03162 µM): 0.47
- relative viability ([10]; first compound 0.1 µM): 0.499
- relative viability ([10]; first compound 0.3162 µM): 0.566
- relative viability ([10]; first compound 1 µM): 0.456
- relative viability ([11]; first compound 0.01 µM): 0.813
- relative viability ([11]; first compound 0.03162 µM): 0.813
- relative viability ([11]; first compound 0.1 µM): 0.766
- relative viability ([11]; first compound 0.3162 µM): 0.929
- relative viability ([11]; first compound 1 µM): 0.715
- relative viability ([12]; first compound 0.01 µM): 0.741
- relative viability ([12]; first compound 0.03162 µM): 0.663
- relative viability ([12]; first compound 0.1 µM): 0.775
- relative viability ([12]; first compound 0.3162 µM): 0.677
- relative viability ([12]; first compound 1 µM): 0.573
- relative viability ([13]; first compound 0.01 µM): 0.292
- relative viability ([13]; first compound 0.03162 µM): 0.301
- relative viability ([13]; first compound 0.1 µM): 0.264
- relative viability ([13]; first compound 0.3162 µM): 0.225
- relative viability ([13]; first compound 1 µM): 0.146
- relative viability ([14]; first compound 0.01 µM): 0.421
- relative viability ([14]; first compound 0.03162 µM): 0.485
- relative viability ([14]; first compound 0.1 µM): 0.569
- relative viability ([14]; first compound 0.3162 µM): 0.514
- relative viability ([14]; first compound 1 µM): 0.501
- relative viability ([15]; first compound 0.01 µM): 0.452
- relative viability ([15]; first compound 0.03162 µM): 0.424
- relative viability ([15]; first compound 0.1 µM): 0.54
- relative viability ([15]; first compound 0.3162 µM): 0.427
- relative viability ([15]; first compound 1 µM): 0.395
- relative viability ([16]; first compound 0.01 µM): 0.618
- relative viability ([16]; first compound 0.03162 µM): 0.598
- relative viability ([16]; first compound 0.1 µM): 0.674
- relative viability ([16]; first compound 0.3162 µM): 0.64
- relative viability ([16]; first compound 1 µM): 0.592
- relative viability ([17]; first compound 0.01 µM): 0.361
- relative viability ([17]; first compound 0.03162 µM): 0.412
- relative viability ([17]; first compound 0.1 µM): 0.586
- relative viability ([17]; first compound 0.3162 µM): 0.531
- relative viability ([17]; first compound 1 µM): 0.404
- relative viability ([18]; first compound 0.01 µM): 0.542
- relative viability ([18]; first compound 0.03162 µM): 0.464
- relative viability ([18]; first compound 0.1 µM): 0.423
- relative viability ([18]; first compound 0.3162 µM): 0.477
- relative viability ([18]; first compound 1 µM): 0.22
- relative viability ([19]; first compound 0.01 µM): 0.702
- relative viability ([19]; first compound 0.03162 µM): 0.624
- relative viability ([19]; first compound 0.1 µM): 0.658
- relative viability ([19]; first compound 0.3162 µM): 0.807
- relative viability ([19]; first compound 1 µM): 0.509
- relative viability ([20]; first compound 0.01 µM): 0.63
- relative viability ([20]; first compound 0.03162 µM): 0.636
- relative viability ([20]; first compound 0.1 µM): 0.634
- relative viability ([20]; first compound 0.3162 µM): 0.529
- relative viability ([20]; first compound 1 µM): 0.425
- relative viability ([21]; first compound 0.01 µM): 0.476
- relative viability ([21]; first compound 0.03162 µM): 0.494
- relative viability ([21]; first compound 0.1 µM): 0.611
- relative viability ([21]; first compound 0.3162 µM): 0.524
- relative viability ([21]; first compound 1 µM): 0.51
